According to PubChem BioAssay AID1963834 (Molecular Pharmacology Branch, DTP, NCI, 2024):

Tested on: 873145-292-R-J1-PDC complex spheroid viability
Assay: Anticancer human tumor 873145-292-R-J1-PDC patient-derived renal clear cell carcinoma cell line growth inhibition [POLQ]
Conditions: for IC50: curve of first compound; for viability, T/C: stronger effect = lower value
How it was run: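 Growth inhibition in 3D: complex spheroids (tumor PDC, HUVEC, MSC) treated with POLQ inhibitor combinations; where Cmax unknown, highest tested concentration 10 microM, except SN-38 at 1 microM.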

[1] = second compound 0.0316 µM, first compound 0.0316 µM
[2] = second compound 0.0316 µM, first compound 0.1 µM
[3] = second compound 0.0316 µM, first compound 0.316 µM
[4] = second compound 0.0316 µM, first compound 1 µM
[5] = second compound 0.1 µM, first compound 0.0316 µM
[6] = second compound 0.1 µM, first compound 0.1 µM
[7] = second compound 0.1 µM, first compound 0.316 µM
[8] = second compound 0.1 µM, first compound 1 µM
[9] = second compound 0.316 µM, first compound 0.0316 µM
[10] = second compound 0.316 µM, first compound 0.1 µM
[11] = second compound 0.316 µM, first compound 0.316 µM
[12] = second compound 0.316 µM, first compound 1 µM
[13] = second compound 1 µM, first compound 0.0316 µM
[14] = second compound 1 µM, first compound 0.1 µM
[15] = second compound 1 µM, first compound 0.316 µM
[16] = second compound 1 µM, first compound 1 µM
[17] = second compound 3.16 µM, first compound 0.0316 µM
[18] = second compound 3.16 µM, first compound 0.1 µM
[19] = second compound 3.16 µM, first compound 0.316 µM
[20] = second compound 3.16 µM, first compound 1 µM
[21] = second compound 10 µM, first compound 0.0316 µM
[22] = second compound 10 µM, first compound 0.1 µM
[23] = second compound 10 µM, first compound 0.316 µM
[24] = second compound 10 µM, first compound 1 µM
[25] = second compound 0.0316 µM, first compound 3.16 µM
[26] = second compound 0.0316 µM, first compound 10 µM
[27] = second compound 0.1 µM, first compound 3.16 µM
[28] = second compound 0.1 µM, first compound 10 µM
[29] = second compound 0.316 µM, first compound 3.16 µM
[30] = second compound 0.316 µM, first compound 10 µM
[31] = second compound 1 µM, first compound 3.16 µM
[32] = second compound 1 µM, first compound 10 µM
[33] = second compound 3.16 µM, first compound 3.16 µM
[34] = second compound 3.16 µM, first compound 10 µM
[35] = second compound 10 µM, first compound 3.16 µM
[36] = second compound 10 µM, first compound 10 µM
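Also: spheroids exposed to compounds for 7 days before viability readout.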
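For viability, T/C in this document: luminescence signal used as surrogate for viable cell content; 100% = DMSO vehicle control viability.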

**Q.** For `CCc1c2c(nc3ccc(O)cc13)-c1cc3c(c(=O)n1C2)COC(=O)[C@]3(O)CC` + Nc1ccc(C#CCN(C(=O)Cc2ncc(C(F)(F)F)cc2C(F)(F)F)c2ccc(F)cc2)nn1, which IC50 (second compound 0.0316 µM) is on record?
**A.** 0.143 µM

**Q.** And the IC50 (second compound 0.1 µM)?
**A.** 0.0662 µM

**Q.** And the IC50 (second compound 0.316 µM)?
**A.** 0.119 µM

**Q.** What about the IC50 (second compound 1 µM) of the same compound?
**A.** 0.114 µM

**Q.** And the IC50 (second compound 3.16 µM)?
**A.** 0.079 µM

**Q.** And the IC50 (second compound 10 µM)?
**A.** 0.173 µM

**Q.** What about the viability, T/C (second compound 0.0316 µM, first compound 0.00316 µM) of the same compound?
**A.** 104%

**Q.** And the viability, T/C (second compound 0.0316 µM, first compound 0.01 µM)?
**A.** 99.2%

**Q.** What about the viability, T/C [1] of the same compound?
**A.** 62.1%

**Q.** What about the viability, T/C [2] of the same compound?
**A.** 59.2%

**Q.** And the viability, T/C [3]?
**A.** 44.1%

**Q.** And the viability, T/C [4]?
**A.** 36.2%

**Q.** And the viability, T/C (second compound 0.1 µM, first compound 0.00316 µM)?
**A.** 106%

**Q.** And the viability, T/C (second compound 0.1 µM, first compound 0.01 µM)?
**A.** 102%

**Q.** What about the viability, T/C [5] of the same compound?
**A.** 60%

**Q.** And the viability, T/C [6]?
**A.** 48.7%

**Q.** What about the viability, T/C [7] of the same compound?
**A.** 50.9%

**Q.** What about the viability, T/C [8] of the same compound?
**A.** 30.2%

**Q.** What about the viability, T/C (second compound 0.316 µM, first compound 0.00316 µM) of the same compound?
**A.** 114%

**Q.** What about the viability, T/C (second compound 0.316 µM, first compound 0.01 µM) of the same compound?
**A.** 87.7%

**Q.** And the viability, T/C [9]?
**A.** 62.2%

**Q.** What about the viability, T/C [10] of the same compound?
**A.** 54.5%

**Q.** And the viability, T/C [11]?
**A.** 44.5%

**Q.** And the viability, T/C [12]?
**A.** 28.9%

**Q.** And the viability, T/C (second compound 1 µM, first compound 0.00316 µM)?
**A.** 99.8%

**Q.** What about the viability, T/C (second compound 1 µM, first compound 0.01 µM) of the same compound?
**A.** 85.2%

**Q.** What about the viability, T/C [13] of the same compound?
**A.** 66.4%

**Q.** What about the viability, T/C [14] of the same compound?
**A.** 51.5%

**Q.** And the viability, T/C [15]?
**A.** 41.7%

**Q.** What about the viability, T/C [16] of the same compound?
**A.** 39.9%

**Q.** What about the viability, T/C (second compound 3.16 µM, first compound 0.00316 µM) of the same compound?
**A.** 94.5%

**Q.** And the viability, T/C (second compound 3.16 µM, first compound 0.01 µM)?
**A.** 97.8%

**Q.** What about the viability, T/C [17] of the same compound?
**A.** 67.6%

**Q.** What about the viability, T/C [18] of the same compound?
**A.** 47.9%

**Q.** And the viability, T/C [19]?
**A.** 42%

**Q.** And the viability, T/C [20]?
**A.** 35.9%

**Q.** And the viability, T/C (second compound 10 µM, first compound 0.00316 µM)?
**A.** 111%

**Q.** What about the viability, T/C (second compound 10 µM, first compound 0.01 µM) of the same compound?
**A.** 94.5%

**Q.** And the viability, T/C [21]?
**A.** 66.8%

**Q.** What about the viability, T/C [22] of the same compound?
**A.** 55.8%

**Q.** What about the viability, T/C [23] of the same compound?
**A.** 47.4%

**Q.** What about the viability, T/C [24] of the same compound?
**A.** 34.9%

**Q.** What does the source list for `O=C(c1cc(Cc2n[nH]c(=O)c3ccccc23)ccc1F)N1CCN(C(=O)C2CC2)CC1` + Nc1ccc(C#CCN(C(=O)Cc2ncc(C(F)(F)F)cc2C(F)(F)F)c2ccc(F)cc2)nn1?
**A.** IC50 (second compound 0.0316 µM): > 10 µM; IC50 (second compound 0.1 µM): > 10 µM; IC50 (second compound 0.316 µM): > 10 µM; IC50 (second compound 1 µM): > 10 µM; IC50 (second compound 3.16 µM): > 10 µM; IC50 (second compound 10 µM): > 10 µM; viability, T/C [1]: 98.5%; viability, T/C [2]: 110%; viability, T/C [3]: 101%; viability, T/C [4]: 106%; viability, T/C [25]: 107%; viability, T/C [26]: 108%; viability, T/C [5]: 112%; viability, T/C [6]: 118%; viability, T/C [7]: 103%; viability, T/C [8]: 102%; viability, T/C [27]: 98.1%; viability, T/C [28]: 96.2%; viability, T/C [9]: 96.4%; viability, T/C [10]: 114%; viability, T/C [11]: 114%; viability, T/C [12]: 105%; viability, T/C [29]: 93.8%; viability, T/C [30]: 103%; viability, T/C [13]: 98.4%; viability, T/C [14]: 105%; viability, T/C [15]: 114%; viability, T/C [16]: 117%; viability, T/C [31]: 104%; viability, T/C [32]: 88.6%; viability, T/C [17]: 104%; viability, T/C [18]: 114%; viability, T/C [19]: 115%; viability, T/C [20]: 110%; viability, T/C [33]: 96.2%; viability, T/C [34]: 104%; viability, T/C [21]: 101%; viability, T/C [22]: 105%; viability, T/C [23]: 106%; viability, T/C [24]: 109%; viability, T/C [35]: 100%; viability, T/C [36]: 101%

**Q.** With `O=c1[nH]cc(F)c(=O)[nH]1` + Nc1ccc(C#CCN(C(=O)Cc2ncc(C(F)(F)F)cc2C(F)(F)F)c2ccc(F)cc2)nn1 as the compound, how does the IC50 (second compound 0.0316 µM) read?
**A.** > 10 µM

**Q.** And the IC50 (second compound 0.1 µM)?
**A.** > 10 µM

**Q.** What about the IC50 (second compound 0.316 µM) of the same compound?
**A.** > 10 µM

**Q.** And the IC50 (second compound 1 µM)?
**A.** > 10 µM

**Q.** And the IC50 (second compound 3.16 µM)?
**A.** > 10 µM

**Q.** What about the IC50 (second compound 10 µM) of the same compound?
**A.** > 10 µM

**Q.** And the viability, T/C [1]?
**A.** 109%

**Q.** And the viability, T/C [2]?
**A.** 103%

**Q.** What about the viability, T/C [3] of the same compound?
**A.** 101%

**Q.** What about the viability, T/C [4] of the same compound?
**A.** 91.1%

**Q.** What about the viability, T/C [25] of the same compound?
**A.** 98.5%

**Q.** What about the viability, T/C [26] of the same compound?
**A.** 103%

**Q.** And the viability, T/C [5]?
**A.** 104%

**Q.** What about the viability, T/C [6] of the same compound?
**A.** 117%

**Q.** What about the viability, T/C [7] of the same compound?
**A.** 101%

**Q.** What about the viability, T/C [8] of the same compound?
**A.** 105%

**Q.** What about the viability, T/C [27] of the same compound?
**A.** 98.3%

**Q.** What about the viability, T/C [28] of the same compound?
**A.** 93.7%

**Q.** And the viability, T/C [9]?
**A.** 105%

**Q.** What about the viability, T/C [10] of the same compound?
**A.** 105%

**Q.** And the viability, T/C [11]?
**A.** 87.6%

**Q.** What about the viability, T/C [12] of the same compound?
**A.** 98%

**Q.** What about the viability, T/C [29] of the same compound?
**A.** 103%

**Q.** And the viability, T/C [30]?
**A.** 97.7%

**Q.** What about the viability, T/C [13] of the same compound?
**A.** 113%

**Q.** What about the viability, T/C [14] of the same compound?
**A.** 107%

**Q.** What about the viability, T/C [15] of the same compound?
**A.** 102%

**Q.** And the viability, T/C [16]?
**A.** 90.1%

**Q.** And the viability, T/C [31]?
**A.** 114%

**Q.** What about the viability, T/C [32] of the same compound?
**A.** 95.2%

**Q.** What about the viability, T/C [17] of the same compound?
**A.** 118%

**Q.** And the viability, T/C [18]?
**A.** 101%

**Q.** What about the viability, T/C [19] of the same compound?
**A.** 112%

**Q.** And the viability, T/C [20]?
**A.** 105%

**Q.** What about the viability, T/C [33] of the same compound?
**A.** 105%

**Q.** And the viability, T/C [34]?
**A.** 105%

**Q.** And the viability, T/C [21]?
**A.** 107%

**Q.** What about the viability, T/C [22] of the same compound?
**A.** 125%

**Q.** What about the viability, T/C [23] of the same compound?
**A.** 132%

**Q.** And the viability, T/C [24]?
**A.** 116%

**Q.** What about the viability, T/C [35] of the same compound?
**A.** 105%

**Q.** What about the viability, T/C [36] of the same compound?
**A.** 112%
